# Source: patent US8536139B2, “Compositions comprising lipoteichoic acid for use in treating pleural effusion or pneumothorax” (ISIS Innovation Limited, priority 2007, dated 2013)
# Values joined by “and” are separate entries in the source; they are usually repeats but may differ in a detail not shown here. Equal values may be shown once.
# Experiments:
# Type in all cases: in vivo, human
# [1] = test system: adults with histocytologically proven malignant pleural effusion; assay: Peripheral blood white cell count change 24 hours after intrapleural administration; conditions: 7 subjects receiving >750 mcg; p=0.016, paired t-test
# Experimental: FIG. 3 illustrates the change in peripheral white cell count 24 hours after administration of intrapleural saline control or LTA-T, in all patients (FIG. 3a) and patients receiving 750 mcg LTA-T or more (FIG. 3b). Individual results are shown and mean and SD data for each group.
# (§1) After informed consent, an indwelling pleural catheter (PleurX, Denver, Colo.) was placed in the pleural effusion and the pleural space fully drained. Markers of toxicity (clinical symptoms, blood parameters, performance status) were recorded daily on the first 14 days of the study and at intervals thereafter (FIG. 1).
# (§2) Changes in continuous variables were compared to baseline using a paired t-test (SPSS version 12.0).
# [2] = test system: adults with histocytologically proven malignant pleural effusion; assay: Phase I/IIa trial of intrapleural LTA-T: dose escalation and toxicity
# Source text: The study was a phase I/IIa toxicity/non-randomised “proof of concept” efficacy trial. The protocol included administration of an intrapleural saline control followed by seven days pleural fluid production measurement prior to the administration of LTA-T to allow the assessment of any side-effects from LTA-T administration, and both acute pleural fluid production changes and the frequency of long-term pleurodesis efficacy after intrapleural LTA-T (see FIG. 1).
# The subjects were adults (aged≧18) with histocytologically proven malignant pleural effusion requiring symptomatic treatment.
# as §1
# After initial complete fluid drainage, 30 mls intra-pleural saline (saline control) was administered (day 1). The daily pleural fluid drainage was then recorded for seven days to quantify the rate of production of pleural fluid. On day seven, subjects received a single intra-pleural injection of LTA-T, according to the dosing schedule (table 1). The starting dose was 250 mcg. Patients remained in hospital for one night following LTA-T administration in a respiratory unit equipped for the care of acute respiratory failure to permit immediate adverse event monitoring.
# (§3) Patient symptoms, performance status, radiographic pleural fluid recurrence (chest radiograph), adverse events and the clinical need for further pleural fluid drainage was assessed on days 22, 43, 64, 85. Where further fluid drainage was required, the time from the administration of LTA-T to first drainage was recorded. Those with recurrent pleural fluid were offered sterile talc pleurodesis (as standard care). All patients were followed up to death.
# [3] = test system: adults with histocytologically proven malignant pleural effusion; assay: Alveolar to arterial gradient in the partial pressure of oxygen (arterial blood gases breathing air)
# Source text: Arterial blood gases breathing air were taken on days 1 and 3 of the first week (pre and post control saline), and on days 7 and 9 (pre and post LTA-T) to identify any impaired gas exchange (which is a problem with talc pleurodesis). The efficiency of lung oxygen exchange was quantified from the change in the alveolar to arterial gradient for the partial pressure of oxygen calculated from these blood gas samples, using standard methods.
# as §2
# [4] = test system: malignant pleural effusion; assay: Long-term pleural fluid control (pleurodesis success, need for late therapeutic drainage)
# Experimental: Over the next 7 days (days 7-14), daily pleural fluid volume drainage and pleural fluid cytology for malignant cells was performed unless pleural fluid flow ceased. On day 14, the intra-pleural catheter was flushed and closed (but left in situ) and not used again for the duration of the study unless recurrent pleural fluid caused breathlessness requiring treatment by fluid drainage.
# as §3
# Long-term pleural fluid control was assessed by noting which patients required late therapeutic (>500 mls) pleural fluid drainage from their indwelling catheter in association with symptoms (excluding the subject not capable of achieving pleurodesis due to trapped lung). […] Between day 14 (when the indwelling catheter was first locked closed) and 1 month, 3 further patients received one therapeutic fluid drainage (pleurodesis success from day 14 9/12 (75%)). In those patients receiving a dose >750 mcg of intrapleural LTA-T, 6/7 required no therapeutic drainage at 1 month (86% pleurodesis success rate).
substance,measurement,setting,value
lipoteichoic acid T [LTA-T],"Difference in WCC change, LTA-T vs saline",[1],4.70 (3.77)
same,Toxicity at the therapeutic dose,[2]; 750-1500 mcg intrapleural,mild with no consistent side effect profile
same,Pain,[2]; dose of 750 mcg to 1000 mcg,almost no pain
same,Side effects,"[2]; individual patients, single intrapleural dose 250 mcg",mild fever and Nil and Mild chest pain 2 hours post administration
same,Side effects,"[2]; individual patients, single intrapleural dose 375 mcg",Nil (2×) and Mild headache and light headed 4 hours
same,Side effects,"[2]; individual patients, single intrapleural dose 750 mcg","Nil and Mild back pain on inspiration after LTA-T, and Nausea, vomiting and pyrexia for 3 days"
same,Side effects,"[2]; individual patients, single intrapleural dose 1500 mcg",Nil
same,Raised inflammatory markers (CRP),"[2]; patient 10, 750 mcg, post LTA-T administration",inflammatory markers (CRP > 285).
same,Side effects,"[2]; patient 14, single intrapleural dose 3000 mcg",systemic inflammatory reaction
same,"Blood parameter, performance status or respiratory status toxicities",[2]; whole trial,"No blood parameter, performance status or respiratory status toxicities were seen"
same,"Alveolar to arterial gradient for the partial pressure of oxygen, post LTA-T, mean (SD)","[3]; day 9, mean baseline (SD) 4.24 (2.92) kPa",4.88 (1.80) kPa
same,Blood oxygen levels,[3]; dose of 750 mcg to 1000 mcg,no evidence of depressed blood oxygen levels
same,Change in the alveolar to arterial gradient versus saline control,[3]; following LTA-T compared with saline control,similar
same,Pleurodesis success from day 14,"[4]; 9/12, day 14 to 1 month, where pleurodesis technically achievable",75%
same,Patients not requiring any further therapeutic pleural drainage beyond 1 month from trial entry,"[4]; 12/13 patients, trapped lung subject excluded",92%
same,Pleurodesis outcome,[4]; dose of 750 mcg to 1000 mcg,effective pleurodesis
same,Pleurodesis success rate (no therapeutic drainage at 1 month),"[4]; patients receiving >750 mcg intrapleural, 6/7",86%
